# Measurements as given in patent US12157741B2, “Macrocyclic inhibitors of DYRK1A” (DANA-FARBER CANCER INSTITUTE, INC., priority 2018, dated 2024).
# How the values were obtained:
# Format in all cases: binding
# Conditions in all cases: compound 1 uM
# [1] = molecular target: T1, various enzymes (Homo sapiens, UniProt P45985)
# T1 sequence (P45985 1-399): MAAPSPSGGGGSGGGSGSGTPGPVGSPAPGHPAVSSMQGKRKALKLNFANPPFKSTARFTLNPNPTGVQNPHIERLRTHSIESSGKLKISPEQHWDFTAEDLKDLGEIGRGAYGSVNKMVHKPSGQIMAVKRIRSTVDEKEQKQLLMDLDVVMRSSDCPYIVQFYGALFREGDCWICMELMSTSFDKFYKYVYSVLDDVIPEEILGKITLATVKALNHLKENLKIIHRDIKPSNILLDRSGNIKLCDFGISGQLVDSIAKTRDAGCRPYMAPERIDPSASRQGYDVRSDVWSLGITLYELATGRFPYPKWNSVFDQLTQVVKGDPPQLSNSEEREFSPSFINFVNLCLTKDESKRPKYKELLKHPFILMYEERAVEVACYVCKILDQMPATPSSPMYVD
# Protocol: (§1) Ambit profiling was conducted in accordance with the manufacturer's instructions.
# [2] = molecular target: various enzymes (Homo sapiens, UniProt Q9UKE5)
# Protocol: as §1
# [3] = molecular target: various enzymes (Homo sapiens, UniProt O96017)
# Protocol: as §1
# [4] = molecular target: various enzymes (Homo sapiens, UniProt P49760)
# Protocol: as §1
# [5] = molecular target: various enzymes (Homo sapiens, UniProt P42338)
# Protocol: as §1
# [6] = molecular target: various enzymes (Homo sapiens, UniProt Q04759)
# Protocol: as §1
# [7] = molecular target: various enzymes (Homo sapiens, UniProt Q96BR1)
# Protocol: as §1
# [8] = molecular target: various enzymes (Homo sapiens, UniProt P49841)
# Protocol: as §1
# [9] = molecular target: T2, various enzymes (Homo sapiens, UniProt O75385)
# T2 sequence (O75385 1-1050): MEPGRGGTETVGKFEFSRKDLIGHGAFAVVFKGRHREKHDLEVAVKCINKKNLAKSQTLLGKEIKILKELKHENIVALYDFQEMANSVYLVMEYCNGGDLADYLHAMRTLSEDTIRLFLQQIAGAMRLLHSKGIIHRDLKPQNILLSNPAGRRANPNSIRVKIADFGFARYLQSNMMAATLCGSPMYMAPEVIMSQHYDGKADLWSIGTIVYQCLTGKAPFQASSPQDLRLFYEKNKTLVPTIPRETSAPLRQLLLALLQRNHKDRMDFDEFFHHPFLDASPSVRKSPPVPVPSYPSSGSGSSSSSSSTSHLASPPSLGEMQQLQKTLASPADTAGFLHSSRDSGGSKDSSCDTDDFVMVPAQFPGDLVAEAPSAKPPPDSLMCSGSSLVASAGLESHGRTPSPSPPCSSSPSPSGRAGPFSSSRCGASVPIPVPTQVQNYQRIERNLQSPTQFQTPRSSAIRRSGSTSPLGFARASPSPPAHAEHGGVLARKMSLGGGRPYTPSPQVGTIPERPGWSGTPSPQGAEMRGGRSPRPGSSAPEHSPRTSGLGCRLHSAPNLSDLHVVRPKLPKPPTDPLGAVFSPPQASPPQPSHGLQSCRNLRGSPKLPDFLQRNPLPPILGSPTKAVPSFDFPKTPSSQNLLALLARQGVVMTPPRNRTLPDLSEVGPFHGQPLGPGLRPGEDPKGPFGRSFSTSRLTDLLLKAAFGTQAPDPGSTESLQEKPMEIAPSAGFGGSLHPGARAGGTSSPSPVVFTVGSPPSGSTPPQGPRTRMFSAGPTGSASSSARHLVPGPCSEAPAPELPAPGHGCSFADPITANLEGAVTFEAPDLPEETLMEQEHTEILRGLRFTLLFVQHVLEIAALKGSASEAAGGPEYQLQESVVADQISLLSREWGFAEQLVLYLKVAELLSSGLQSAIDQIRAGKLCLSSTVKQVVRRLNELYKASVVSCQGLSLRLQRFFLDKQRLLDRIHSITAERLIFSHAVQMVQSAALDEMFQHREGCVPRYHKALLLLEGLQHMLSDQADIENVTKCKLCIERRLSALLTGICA
# Protocol: as §1
# [10] = molecular target: various enzymes (Homo sapiens, UniProt Q14164)
# Protocol: as §1
# [11] = molecular target: various enzymes (Homo sapiens, UniProt Q9HAZ1)
# Protocol: as §1
# [12] = molecular target: various enzymes (Homo sapiens, UniProt Q9H4B4)
# Protocol: as §1
# [13] = molecular target: various enzymes (Homo sapiens, UniProt Q8N5S9)
# Protocol: as §1
# [14] = molecular target: various enzymes (Homo sapiens, UniProt P28482)
# Protocol: as §1
# [15] = molecular target: various enzymes (Homo sapiens, UniProt P15056)
# Protocol: as §1
# [16] = molecular target: various enzymes (Homo sapiens, UniProt Q9UHD2)
# Protocol: as §1
# [17] = molecular target: various enzymes (Homo sapiens, UniProt O00506)
# Protocol: as §1
# [18] = molecular target: various enzymes (Homo sapiens, UniProt P23443)
# Protocol: as §1
# [19] = molecular target: various enzymes (Homo sapiens, UniProt O94804)
# Protocol: as §1
# [20] = molecular target: various enzymes (Homo sapiens, UniProt Q9Y6M4)
# Protocol: as §1
# [21] = molecular target: various enzymes (Homo sapiens, UniProt Q8N568)
# Protocol: as §1
# Chain of various enzymes (Homo sapiens, UniProt P49760) (P49760 whole entry): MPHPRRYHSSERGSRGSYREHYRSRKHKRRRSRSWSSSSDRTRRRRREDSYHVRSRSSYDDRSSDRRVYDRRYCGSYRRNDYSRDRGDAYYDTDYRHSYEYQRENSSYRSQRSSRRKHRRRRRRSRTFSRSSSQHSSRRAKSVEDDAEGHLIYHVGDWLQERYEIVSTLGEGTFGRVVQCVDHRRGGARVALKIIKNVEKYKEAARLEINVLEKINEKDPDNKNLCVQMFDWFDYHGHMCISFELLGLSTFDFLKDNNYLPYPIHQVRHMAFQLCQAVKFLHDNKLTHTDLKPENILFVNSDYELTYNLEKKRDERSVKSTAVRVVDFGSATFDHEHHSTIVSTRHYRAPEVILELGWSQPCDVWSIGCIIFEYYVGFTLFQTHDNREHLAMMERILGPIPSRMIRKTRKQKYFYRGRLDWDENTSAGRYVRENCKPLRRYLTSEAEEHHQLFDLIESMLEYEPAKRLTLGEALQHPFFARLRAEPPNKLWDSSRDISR
# Chain of various enzymes (Homo sapiens, UniProt O00506) (O00506 whole entry): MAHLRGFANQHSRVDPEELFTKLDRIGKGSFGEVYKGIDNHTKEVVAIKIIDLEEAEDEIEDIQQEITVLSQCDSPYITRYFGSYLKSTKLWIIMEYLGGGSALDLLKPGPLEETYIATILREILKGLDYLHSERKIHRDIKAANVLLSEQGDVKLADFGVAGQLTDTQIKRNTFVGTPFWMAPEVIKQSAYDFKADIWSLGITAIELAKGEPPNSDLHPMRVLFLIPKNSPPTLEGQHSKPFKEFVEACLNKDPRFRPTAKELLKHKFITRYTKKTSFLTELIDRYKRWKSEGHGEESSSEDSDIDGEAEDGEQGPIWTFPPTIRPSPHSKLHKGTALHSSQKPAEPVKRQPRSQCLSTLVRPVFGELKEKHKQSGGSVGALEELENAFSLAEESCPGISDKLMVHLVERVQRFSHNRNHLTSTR
# Chain of various enzymes (Homo sapiens, UniProt P42338) (P42338 whole entry): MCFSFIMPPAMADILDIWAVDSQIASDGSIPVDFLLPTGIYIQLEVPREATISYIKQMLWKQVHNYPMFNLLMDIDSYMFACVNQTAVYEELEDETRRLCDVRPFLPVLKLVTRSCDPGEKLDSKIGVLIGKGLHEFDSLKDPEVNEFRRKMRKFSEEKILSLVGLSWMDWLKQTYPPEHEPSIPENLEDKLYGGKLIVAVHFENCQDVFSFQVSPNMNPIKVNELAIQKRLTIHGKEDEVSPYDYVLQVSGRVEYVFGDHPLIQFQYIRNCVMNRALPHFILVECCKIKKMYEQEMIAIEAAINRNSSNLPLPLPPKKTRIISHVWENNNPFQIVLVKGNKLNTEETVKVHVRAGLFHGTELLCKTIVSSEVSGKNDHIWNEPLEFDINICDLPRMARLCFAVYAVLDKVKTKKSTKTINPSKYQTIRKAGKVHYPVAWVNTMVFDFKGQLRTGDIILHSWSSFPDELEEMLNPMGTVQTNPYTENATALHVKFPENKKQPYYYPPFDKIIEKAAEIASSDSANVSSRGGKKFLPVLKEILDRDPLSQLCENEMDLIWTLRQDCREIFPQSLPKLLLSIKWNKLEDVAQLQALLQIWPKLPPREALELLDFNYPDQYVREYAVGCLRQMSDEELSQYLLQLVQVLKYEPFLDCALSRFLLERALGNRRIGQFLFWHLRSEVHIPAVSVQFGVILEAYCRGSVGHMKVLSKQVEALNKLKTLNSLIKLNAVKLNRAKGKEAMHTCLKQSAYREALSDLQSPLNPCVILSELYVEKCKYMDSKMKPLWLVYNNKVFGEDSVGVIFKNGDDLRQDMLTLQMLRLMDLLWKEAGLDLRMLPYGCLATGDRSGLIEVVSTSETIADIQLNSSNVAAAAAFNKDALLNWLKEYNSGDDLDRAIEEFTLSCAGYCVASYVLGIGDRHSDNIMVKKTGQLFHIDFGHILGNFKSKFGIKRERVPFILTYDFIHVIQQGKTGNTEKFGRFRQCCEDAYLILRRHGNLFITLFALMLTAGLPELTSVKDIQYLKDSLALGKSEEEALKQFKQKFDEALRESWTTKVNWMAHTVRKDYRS
# Chain of various enzymes (Homo sapiens, UniProt Q9HAZ1) (Q9HAZ1 whole entry): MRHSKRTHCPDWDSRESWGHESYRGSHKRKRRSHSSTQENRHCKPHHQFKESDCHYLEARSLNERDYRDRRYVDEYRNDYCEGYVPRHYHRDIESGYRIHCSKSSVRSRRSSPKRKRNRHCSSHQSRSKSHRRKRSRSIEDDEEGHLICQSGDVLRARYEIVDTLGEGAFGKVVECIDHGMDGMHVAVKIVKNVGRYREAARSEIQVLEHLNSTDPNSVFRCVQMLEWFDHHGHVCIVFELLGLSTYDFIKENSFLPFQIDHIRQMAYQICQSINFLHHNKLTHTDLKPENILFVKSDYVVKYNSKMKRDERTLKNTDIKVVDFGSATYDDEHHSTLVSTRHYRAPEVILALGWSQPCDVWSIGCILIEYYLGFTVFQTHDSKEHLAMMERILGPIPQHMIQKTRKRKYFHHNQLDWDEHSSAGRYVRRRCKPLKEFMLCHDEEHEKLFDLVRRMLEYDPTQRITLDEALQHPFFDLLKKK
# Chain of various enzymes (Homo sapiens, UniProt Q04759) (Q04759 whole entry): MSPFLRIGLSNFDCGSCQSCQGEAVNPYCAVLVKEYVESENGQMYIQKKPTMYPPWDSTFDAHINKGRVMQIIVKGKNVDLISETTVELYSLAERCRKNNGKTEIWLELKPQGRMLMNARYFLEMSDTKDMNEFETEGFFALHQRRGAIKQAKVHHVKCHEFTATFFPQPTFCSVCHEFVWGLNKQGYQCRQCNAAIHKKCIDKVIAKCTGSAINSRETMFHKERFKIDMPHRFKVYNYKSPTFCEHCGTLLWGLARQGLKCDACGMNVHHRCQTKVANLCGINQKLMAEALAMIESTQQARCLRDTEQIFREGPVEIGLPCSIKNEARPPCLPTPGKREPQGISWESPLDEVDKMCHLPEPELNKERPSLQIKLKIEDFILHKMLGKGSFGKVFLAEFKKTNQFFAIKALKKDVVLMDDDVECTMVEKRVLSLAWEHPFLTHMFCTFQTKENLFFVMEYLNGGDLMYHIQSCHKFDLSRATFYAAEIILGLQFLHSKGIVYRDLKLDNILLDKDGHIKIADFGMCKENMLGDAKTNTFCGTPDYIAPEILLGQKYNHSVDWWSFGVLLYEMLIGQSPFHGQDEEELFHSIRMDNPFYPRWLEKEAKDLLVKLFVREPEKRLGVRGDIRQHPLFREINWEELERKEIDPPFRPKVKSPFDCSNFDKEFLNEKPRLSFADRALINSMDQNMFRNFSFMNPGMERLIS
# Chain of various enzymes (Homo sapiens, UniProt Q9UHD2) (Q9UHD2 whole entry): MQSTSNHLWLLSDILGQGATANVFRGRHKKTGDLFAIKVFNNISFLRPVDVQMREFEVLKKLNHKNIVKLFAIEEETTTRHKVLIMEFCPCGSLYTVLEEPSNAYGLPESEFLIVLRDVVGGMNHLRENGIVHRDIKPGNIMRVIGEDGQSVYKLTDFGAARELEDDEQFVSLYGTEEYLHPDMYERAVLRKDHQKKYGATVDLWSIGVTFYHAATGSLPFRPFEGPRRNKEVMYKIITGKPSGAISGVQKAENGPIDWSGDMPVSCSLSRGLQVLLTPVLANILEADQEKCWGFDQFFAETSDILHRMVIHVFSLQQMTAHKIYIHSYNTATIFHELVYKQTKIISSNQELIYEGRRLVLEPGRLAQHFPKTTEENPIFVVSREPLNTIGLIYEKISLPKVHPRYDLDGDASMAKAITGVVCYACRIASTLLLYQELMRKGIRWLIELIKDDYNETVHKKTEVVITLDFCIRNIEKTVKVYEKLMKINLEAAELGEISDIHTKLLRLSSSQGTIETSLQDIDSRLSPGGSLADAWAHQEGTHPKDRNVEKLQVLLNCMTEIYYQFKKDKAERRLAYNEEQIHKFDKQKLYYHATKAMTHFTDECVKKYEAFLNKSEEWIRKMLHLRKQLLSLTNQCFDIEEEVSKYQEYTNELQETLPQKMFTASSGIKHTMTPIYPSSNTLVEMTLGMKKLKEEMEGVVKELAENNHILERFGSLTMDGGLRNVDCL
# Chain of various enzymes (Homo sapiens, UniProt Q8N5S9) (Q8N5S9 whole entry): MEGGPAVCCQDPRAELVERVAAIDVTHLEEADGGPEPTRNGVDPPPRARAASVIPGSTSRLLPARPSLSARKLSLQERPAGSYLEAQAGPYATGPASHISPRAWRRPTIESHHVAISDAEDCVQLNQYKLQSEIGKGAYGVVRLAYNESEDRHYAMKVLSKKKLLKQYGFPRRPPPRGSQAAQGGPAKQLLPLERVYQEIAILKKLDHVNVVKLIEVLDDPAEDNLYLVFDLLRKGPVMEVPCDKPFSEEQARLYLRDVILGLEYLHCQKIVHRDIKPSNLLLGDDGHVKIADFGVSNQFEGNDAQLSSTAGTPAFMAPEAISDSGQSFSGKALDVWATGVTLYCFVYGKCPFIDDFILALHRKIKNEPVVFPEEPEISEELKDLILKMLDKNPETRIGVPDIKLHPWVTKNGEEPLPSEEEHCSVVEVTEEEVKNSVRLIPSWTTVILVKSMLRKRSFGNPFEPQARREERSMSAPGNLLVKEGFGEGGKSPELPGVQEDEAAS
# Chain of various enzymes (Homo sapiens, UniProt P49841) (P49841 whole entry): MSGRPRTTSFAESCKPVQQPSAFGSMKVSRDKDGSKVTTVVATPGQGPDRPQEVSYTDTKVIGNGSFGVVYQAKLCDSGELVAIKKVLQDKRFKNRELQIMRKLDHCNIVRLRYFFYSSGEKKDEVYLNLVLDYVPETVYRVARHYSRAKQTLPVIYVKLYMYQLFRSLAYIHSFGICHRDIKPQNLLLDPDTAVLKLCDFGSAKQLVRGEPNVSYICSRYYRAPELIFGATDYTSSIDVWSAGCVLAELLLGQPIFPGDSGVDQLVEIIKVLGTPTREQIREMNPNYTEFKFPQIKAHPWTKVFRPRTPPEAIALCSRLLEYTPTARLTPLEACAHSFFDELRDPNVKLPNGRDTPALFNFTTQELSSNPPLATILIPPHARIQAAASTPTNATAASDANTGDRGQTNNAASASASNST
SMILES,Ambit profiling: MEK4 [1],Ambit profiling: TNIK [2],Ambit profiling: CHEK2 [3],Ambit profiling: CLK2 [4],Ambit profiling: PIK3CB [5],Ambit profiling: PRKCQ [6],Ambit profiling: SGK3 [7],Ambit profiling: GSK3B [8],Ambit profiling: ULK1 [9],Ambit profiling: IKK-epsilon [10],Ambit profiling: CLK4 [11],Ambit profiling: PLK3 [12],Ambit profiling: CAMKK1 [13],Ambit profiling: ERK2 [14],Ambit profiling: BRAF [15],Ambit profiling: TBK1 [16],Ambit profiling: YSK1 [17],Ambit profiling: S6K1 [18],Ambit profiling: LOK [19],Ambit profiling: CSNK1G3 [20],also measured
"CC(C)N1Cc2nn(C)cc2-c2cnc3[nH]cc(c3c2)-c2cn(nc2C(F)(F)F)CCCC1=O [Compound 45, (Z)-5-isopropyl-31-methyl-13-(trifluoromethyl)-11H,21H,31H-5-aza-2(3,5)-pyrrolo[2,3-b]pyridina-1(4,1),3(4,3)-dipyrazolacyclononaphan-6-one]",0.5,5.6,82,4.3,100,27,30,24,75,40,19,95,3.6,100,100,0,38,2.5,4.7,100,Ambit profiling: DCAMKL2 [21]: 100
"COc1c2c(nn1C)CN(C(C)C)C(=O)CCCn1cc(c(C(F)(F)F)n1)-c1c[nH]c3ncc-2cc13 [Compound 50, (Z)-5-isopropyl-35-methoxy-31-methyl-13-(trifluoromethyl)-11H,21H,31H-5-aza-2(3,5)-pyrrolo[2,3-b]pyridina-1(4,1),3(4,3)-dipyrazolacyclononaphan-6-one]",16,13,80,11,100,13,50,90,93,19,17,77,8,87,87,3.8,25,8.6,0.4,79,Ambit profiling: DCAMKL2 [21]: 90
